Where two headings read alike, the source gives them in different places.
Molecular target: GABAA receptor ([35S]-TBPS binding, rat brain cortical membranes)
Experiment: Steroid inhibition of [35S]-TBPS binding
Conditions: in the presence of 5 mM GABA
Experimental: [^35S]-t-Butylbicyclophosphorothionate (TBPS) binding assays using rat brain cortical membranes in the presence of 5 mM GABA has been described (Gee et al, J. Pharmacol. Exp. Ther. 1987, 241, 346-353; Hawkinson et al, Mol. Pharmacol. 1994, 46, 977-985; Lewin, A. H et al., Mol. Pharmacol. 1989, 35, 189-194).
Briefly, cortices are rapidly removed following decapitation of carbon dioxide-anesthetized Sprague-Dawley rats (200-250 g). The cortices are homogenized in 10 volumes of ice-cold 0.32 M sucrose using a glass/teflon homogenizer and centrifuged at 1500×g for 10 min at 4° C. The resultant supernatants are centrifuged at 10,000×g for 20 min at 4° C. to obtain the P2 pellets. The P2 pellets are resuspended in 200 mM NaCl/50 mM Na—K phosphate pH 7.4 buffer and centrifuged at 10,000×g for 10 min at 4° C. This washing procedure is repeated twice and the pellets are resuspended in 10 volumes of buffer. Aliquots ([…]) of the membrane suspensions are incubated with 3 nM [^35S]-TBPS and […] aliquots of test drug dissolved in dimethyl sulfoxide (DMSO) (final 0.5%) in the presence of 5 mM GABA. The incubation is brought to a final volume of 1.0 mL with buffer. Nonspecific binding is determined in the presence of […] and ranged from 15 to 25%. Following a 90 min incubation at room temp, the assays are terminated by filtration through glass fiber filters (Schleicher and Schuell No. 32) using a cell harvester (Brandel) and rinsed three times with ice-cold buffer. Filter bound radioactivity is measured by liquid scintillation spectrometry. Non-linear curve fitting of the overall data for each drug averaged for each concentration is done using Prism (GraphPad). […] The concentration of test compound producing 50% inhibition (IC50) of specific binding and the maximal extent of inhibition (Imax) are determined for the individual experiments with the same model used for the overall data and then the means±SEM.s of the individual experiments are calculated.
Various compounds are or can be screened to determine their potential as modulators of [^35S]-TBPS binding in vitro. These assays are or can be performed in accordance with the above.

[1] = Table II-2, 3 nM [35S]-TBPS, read-out: TBPS IC50
[2] = Table III-1 (biological data), 3 nM [35S]-TBPS, read-out: TBPS IC50

SMILES: CCOC[C@@]1(O)CC[C@@]2(CC)[C@@H](CC[C@H]3[C@@H]4CC[C@H](C(=O)Cn5nnnc5C)[C@@]4(C)CC[C@@H]32)C1 [II-78, 1-((3R,5S,8S,9S,10S,13S,14S,17S)-3-(ethoxymethyl)-10-ethyl-3-hydroxy-13-methylhexadecahydro-1H-cyclopenta[a]phenanthren-17-yl)-2-(5-methyl-1H-tetrazol-1-yl)ethan-1-one]
- IC50 [1]: 0.1 to 1 µM

SMILES: CCOC[C@@]1(O)CC[C@@]2(CC)[C@H](CC[C@H]3[C@@H]4CC[C@H](C(=O)N5CCCC[C@H]5C)[C@@]4(C)CC[C@@H]32)C1 [II-45, ((3R,5R,8S,9S,10S,13S,14S,17S)-3-(ethoxymethyl)-10-ethyl-3-hydroxy-13-methylhexadecahydro-1H-cyclopenta[a]phenanthren-17-yl)((R)-2-methylpiperidin-1-yl)methanone]
- IC50 [1]: 0.01 to 0.1 µM

SMILES: CC[C@]12CC[C@@](C)(O)C[C@@H]1CC[C@H]1[C@@H]3CC[C@H](C(C)=O)[C@@]3(C)CC[C@@H]12 [II-A5, 1-((3R,5S,8S,9S,10S,13S,14S,17S)-10-ethyl-3-hydroxy-3,13-dimethylhexadecahydro-1H-cyclopenta [a]phenanthren-17-yl)ethan-1-one]
- IC50 [1]: 0.01 to 0.1 µM

SMILES: CC[C@]12CC[C@H]3[C@@H](CC[C@@H]4C[C@](C)(O)CC[C@@]43C)[C@@H]1CC[C@@H]2C(C)=O [III-A30, 1-((3R,5R,8R,9S,10S,13S,14S,17S)-13-ethyl-3-hydroxy-3,10-dimethylhexadecahydro-1H-cyclopenta [a]phenanthren-17-yl)ethan-1-one]
- IC50 [2]: < 0.01 µM

SMILES: CCOC[C@@]1(O)CC[C@@]2(CC)[C@H](CC[C@H]3[C@@H]4CC[C@H](C(=O)Cn5ccnn5)[C@@]4(C)CC[C@@H]32)C1 [II-76, 1-((3R,5R,8S,9S,10S,13S,14S,17S)-3-(ethoxymethyl)-10-ethyl-3-hydroxy-13-methylhexadecahydro-1H-cyclopenta[a]phenanthren-17-yl)-2-(1H-1,2,3-triazol-1-yl)ethan-1-one]
- IC50 [1]: 0.01 to 0.1 µM

SMILES: CCOC[C@@]1(O)CC[C@@]2(CC)[C@H](CC[C@H]3[C@@H]4CC[C@H](C(N)=O)[C@@]4(C)CC[C@@H]32)C1 [II-48, (3R,5R,8S,9S,10S,13S,14S,17S)-3-(ethoxymethyl)-10-ethyl-3-hydroxy-13-methylhexadecahydro-1H-cyclopenta[a]phenanthrene-17-carboxamide]
- IC50 [1]: 0.1 to 1 µM

SMILES: CC[C@]12CC[C@@](C)(O)C[C@H]1CC[C@H]1[C@@H]3CC[C@H](C(=O)Cn4cc(C#N)cn4)[C@@]3(C)CC[C@@H]12
- IC50 [1]: < 0.01 µM

SMILES: CN(CC(=O)[C@H]1CC[C@H]2[C@@H]3CC[C@]4(C)C[C@](C)(O)CC[C@]4(C)[C@H]3CC[C@]12C)c1ccccc1 [I-A2, 1-((3R,5R,8S,9S,10R,13S,14S,17S)-3-hydroxy-3,5,10,13-tetramethylhexadecahydro-1H-cyclopenta[a]phenanthren-17-yl)-2-(methyl(phenyl)amino)ethan-1-one]
- IC50 (Table I-1, 3 nM [35S]-TBPS, read-out: TBPS binding IC50): 0.1 to 1 µM

SMILES: CC[C@]12CC[C@@](C)(O)C[C@H]1CC[C@H]1[C@@H]3CC[C@H](C(=O)Cn4ccnn4)[C@@]3(C)CC[C@@H]12 [II-13a, 1-((3R,5R,8S,9S,10S,13S,14S,17S)-10-ethyl-3-hydroxy-3,13-dimethylhexadecahydro-1H-cyclopenta[a]phenanthren-17-yl)-2-(1H-1,2,3-triazol-1-yl)ethan-1-one]
- IC50 [1]: < 0.01 µM

SMILES: CC[C@]12CC[C@](O)(COC)C[C@H]1CC[C@H]1[C@@H]3CC[C@H](C(=O)N4CCCC[C@@H]4C)[C@@]3(C)CC[C@@H]12 [II-B11, ((3R,5R,8S,9S,10S,13S,14S,17S)-10-ethyl-3-hydroxy-3-(methoxymethyl)-13-methylhexadecahydro-1H-cyclopenta[a]phenanthren-17-yl)((S)-2-methylpiperidin-1-yl)methanone]
- IC50 [1]: 0.01 to 0.1 µM

SMILES: CC[C@]12CC[C@@](C)(O)C[C@H]1CC[C@H]1[C@@H]3CC[C@H](C(=O)Cn4nnc5cc(OC)ccc54)[C@@]3(C)CC[C@@H]12 (single isomer, unassigned) [II-M2a]
- IC50 [1]: < 0.01 µM

SMILES: CC[C@]12CC[C@@](C)(O)C[C@H]1CC[C@H]1[C@@H]3CC[C@H](C(=O)Nc4ccccc4)[C@@]3(C)CC[C@@H]12 [II-G3, (3R,5R,8S,9S,10S,13S,14S,17S)-10-ethyl-3-hydroxy-3,13-dimethyl-N-phenylhexadecahydro-1H-cyclopenta Ialphenanthrene-17-carboxamide]
- IC50 [1]: < 0.01 µM

SMILES: CCOC[C@@]1(O)CC[C@@]2(CC)[C@H](CC[C@H]3[C@@H]4CC[C@H](C(=O)Nc5ccccc5C)[C@@]4(C)CC[C@@H]32)C1 [II-47, (3R,5R,8S,9S,10S,13S,14S,17S)-3-(ethoxymethyl)-10-ethyl-3-hydroxy-13-methyl-N-(o-tolyl)hexadecahydro-1H-cyclopenta[a]phenanthrene-17-carboxamide]
- IC50 [1]: < 0.01 µM

SMILES: CCOC[C@@]1(O)CC[C@@]2(CC)[C@H](CC[C@H]3[C@@H]4CC[C@H](C(=O)N5CCCC[C@@H]5C)[C@@]4(C)CC[C@@H]32)C1 [II-44, ((3R,5R,85,95,10S,13S,14S,17S)-3-(ethoxymethyl)-10-ethyl-3-hydroxy-13-methylhexadecahydro-1H-cyclopenta[a]phenanthren-17-yl)((S)-2-methylpiperidin-1-yl)methanone]
- IC50 [1]: 0.1 to 1 µM

SMILES: CCOC[C@@]1(O)CC[C@@]2(CC)[C@H](CC[C@H]3[C@@H]4CC[C@H](C(=O)Cn5cc(C#N)cn5)[C@@]4(C)CC[C@@H]32)C1 [II-C8, 1-(2-((3R,5R,8S,9S,10S,13S,14S,17S)-3-(ethoxymethyl)-10-ethyl-3-hydroxy-13-methylhexadecahydro-1H-cyclopenta[a]phenanthren-17-yl)-2-oxoethyl)-1H-pyrazole-4-carbonitrile]
- IC50 [1]: < 0.01 µM

SMILES: CCOC[C@@]1(O)CC[C@@]2(CC)C(CC[C@@H]3[C@@H]2CC[C@]2(C)[C@@H](C(=O)Cn4nnc(C)n4)CC[C@@H]32)C1 (stereo in doubt) [II-77, 1-((3R,5R,8S,9S,10S,13S,14S,17S)-3-(ethoxymethyl)-10-ethyl-3-hydroxy-13-methylhexadecahydro-1H-cyclopenta[a]phenanthren-17-yl)-2-(5-methyl-2H-tetrazol-2-yl)ethan-1-one]
- IC50 [1]: 0.01 to 0.1 µM

SMILES: CCOC[C@@]1(O)CC[C@@]2(CC)[C@H](CC[C@H]3[C@@H]4CC[C@H](C(C)=O)[C@@]4(C)CC[C@@H]32)C1 [II-C4, 1-((3R,5R,8S,9S,10S,13S,14S,17S)-3-(ethoxymethyl)-10-ethyl-3-hydroxy-13-methylhexadecahydro-1H-cyclopenta[a]phenanthren-17-yl)ethan-1-one]
- IC50 [1]: 0.01 to 0.1 µM

SMILES: CCOC[C@@]1(O)CC[C@@]2(CC)[C@@H](CC[C@H]3[C@@H]4CC[C@H](C(=O)Cn5ccc(C#N)n5)[C@@]4(C)CC[C@@H]32)C1 [II-D13, 1-(2-((3R,5S,8S,9S,10S,13S,14S,17S)-3-(ethoxymethyl)-10-ethyl-3-hydroxy-13-methylhexadecahydro-1H-cyclopenta[a]phenanthren-17-yl)-2-oxoethyl)-1H-pyrazole-3-carbonitrile]
- IC50 [1]: 0.01 to 0.1 µM

SMILES: CC[C@]12CC[C@H]3[C@@H](CC[C@@H]4C[C@](C)(O)CC[C@@H]43)[C@@H]1CC[C@@H]2C(=O)Cn1cc(C#N)cn1 [III-A10, 1-(2-((3R,5R,8R,9R,10S,13S,14S,17S)-13-ethyl-3-hydroxy-3-methylhexadecahydro-1H-cyclopenta[a]phenanthren-17-yl)-2-oxoethyl)-1H-pyrazole-4-carbonitrile]
- IC50 [2]: < 0.01 µM

SMILES: CC[C@]12CC[C@H]3[C@@H](CC[C@H]4C[C@@](O)(COC)CC[C@@H]43)[C@@H]1CC[C@@H]2C(C)=O [III-A20, 1-((3R,5S,8R,9R,10S,13S,14S,17S)-13-ethyl-3-hydroxy-3-(methoxymethyl)hexadecahydro-1H-cyclopenta [a]phenanthren-17-yl)ethan-1-one]
- IC50 [2]: 0.01 to 0.1 µM

SMILES: CC[C@]12CC[C@@](C)(O)C[C@H]1CC[C@H]1[C@@H]3CC[C@H](C(=O)Cn4nnc5ccc(OC)cc54)[C@@]3(C)CC[C@@H]12 (single isomer, unassigned) [II-M2]
- IC50 [1]: < 0.01 µM
